Laboratory results taken from patent US20240108601A1, “TREATMENT OF MENTAL DISORDERS” (GH Research Ireland Limited, priority 2022, published 2024).
Where “and” joins values, the source holds several entries; their conditions need not be identical. Identical values can stand only once.

System: patients with treatment-resistant major depressive disorder (TRD)
Assay: Phase 1/2 clinical trial of inhaled 5-MeO-DMT in treatment-resistant depression
Conditions: for MADRS Concentration Difficulties % improvement / MADRS Concentration Difficulties improvement / MADRS Inability to Feel % improvement / MADRS Inability to Feel improvement / MADRS Inner Tension % improvement / MADRS Inner Tension improvement / MADRS Lassitude % improvement / MADRS Lassitude improvement / MADRS Pessimistic Thoughts % improvement / MADRS Pessimistic Thoughts improvement / MADRS Suicidal Thoughts % improvement / MADRS Suicidal Thoughts improvement / MADRS Suicidal Thoughts aggregated score / MADRS Inner Tension aggregated score / MADRS Concentration Difficulties aggregated score / MADRS Inability to Feel aggregated score / MADRS Lassitude aggregated score / MADRS Pessimistic Thoughts aggregated score / BPRS Anxiety % improvement / BPRS Anxiety improvement / BPRS Blunted Affect % improvement / BPRS Blunted Affect improvement / BPRS Emotional Withdrawal % improvement / BPRS Emotional Withdrawal improvement / BPRS Guilt Feelings % improvement / BPRS Guilt Feelings improvement / BPRS Tension % improvement / BPRS Tension improvement / BPRS Blunted Affect aggregated score / BPRS Emotional Withdrawal aggregated score / BPRS Tension aggregated score / BPRS Guilt Feelings aggregated score / BPRS Anxiety aggregated score / MADRS Reduced Sleep % improvement / MADRS Reduced Sleep improvement / MADRS Reduced Sleep aggregated score: 12 mg n=4; for MADRS Suicidal Thoughts aggregated score: baseline 8; for MADRS Inner Tension aggregated score / BPRS Emotional Withdrawal aggregated score: baseline 13; for MADRS Concentration Difficulties aggregated score / MADRS Inability to Feel aggregated score / MADRS Lassitude aggregated score / MADRS Pessimistic Thoughts aggregated score: baseline 16; for BPRS Blunted Affect aggregated score: baseline 11; for BPRS Tension aggregated score: baseline 14; for BPRS Guilt Feelings aggregated score: baseline 18; for BPRS Anxiety aggregated score: baseline 25; for MADRS Reduced Sleep aggregated score: baseline 12
Experimental: Patients were assigned to different groups. In the context of the present invention, the group who received a single, 12 mg dose and the group who underwent an intra-day individualized dosing regimen (IDR) that allowed for multiple, escalating doses (6 mg, 12 mg and 18 mg) within a single day, driven by the intensity of the patient-reported psychedelic experience are of interest.
The data gathered include the assessment of the treated patients against several scales including the Montgomery Åsberg Depression Rating Scale (MADRS) and the Brief Psychiatric Rating Scale (BPRS).
This trial was designed in two parts. Part A was an open-label, single-arm, single-dose Phase 1 trial with two dose levels (12 mg (n=4) and 18 mg (n=4)). […] The primary endpoint of Part B was to assess the effects on the severity of depression, as assessed by the proportion of patients in remission on day seven after dosing, defined as a MADRS total score of less than or equal to 10.

## COc1ccc2[nH]cc(CCN(C)C)c2c1 [5-MeO-DMT]
12 mg group n=4, day seven
  Patients with MADRS remission (total score ≤10): 50%
12 mg group, day seven
  Mean MADRS change from baseline: −21.0
  Mean MADRS change from baseline, percent: −65%
2 h
  MADRS Concentration Difficulties % improvement: 56% and 56.25%
  MADRS Concentration Difficulties improvement: 9 points
  MADRS Inability to Feel % improvement: 44% and 43.75%
  MADRS Inability to Feel improvement: 7 points
  MADRS Inner Tension % improvement: 85% and 84.62%
  MADRS Inner Tension improvement: 11 points
  MADRS Lassitude % improvement: 38% and 37.50%
  MADRS Lassitude improvement: 6 points
  MADRS Pessimistic Thoughts % improvement: 50%
  MADRS Pessimistic Thoughts improvement: 8 points
  MADRS Suicidal Thoughts % improvement: 63% and 62.50%
  MADRS Suicidal Thoughts improvement: 5 points
  MADRS Suicidal Thoughts aggregated score: 3
  MADRS Inner Tension aggregated score: 2
  MADRS Concentration Difficulties aggregated score: 7
  MADRS Inability to Feel aggregated score: 9
  MADRS Lassitude aggregated score: 10
  MADRS Pessimistic Thoughts aggregated score: 8
3 h
  BPRS Anxiety % improvement: 56%
  BPRS Anxiety improvement: 14 points
  BPRS Blunted Affect % improvement: 27% and 27.27%
  BPRS Blunted Affect improvement: 3 points
  BPRS Emotional Withdrawal % improvement: 15% and 15.38%
  BPRS Emotional Withdrawal improvement: 2 points
  BPRS Guilt Feelings % improvement: 50%
  BPRS Guilt Feelings improvement: 9 points
  BPRS Tension % improvement: 36% and 35.71%
  BPRS Tension improvement: 5 points
  BPRS Blunted Affect aggregated score: 8
  BPRS Emotional Withdrawal aggregated score: 11
  BPRS Tension aggregated score: 9
  BPRS Guilt Feelings aggregated score: 9
  BPRS Anxiety aggregated score: 11
Day 1
  BPRS Anxiety % improvement: 76%
  BPRS Anxiety improvement: 19 points
  BPRS Blunted Affect % improvement: 45% and 45.45%
  BPRS Blunted Affect improvement: 5 points
  BPRS Emotional Withdrawal % improvement: 38% and 38.46%
  BPRS Emotional Withdrawal improvement: 5 points
  BPRS Guilt Feelings % improvement: 72% and 72.22%
  BPRS Guilt Feelings improvement: 13 points
  BPRS Tension % improvement: 57% and 57.14%
  BPRS Tension improvement: 8 points
  MADRS Concentration Difficulties % improvement: 88% and 87.50%
  MADRS Concentration Difficulties improvement: 14 points
  MADRS Inability to Feel % improvement: 94% and 93.75%
  MADRS Inability to Feel improvement: 15 points
  MADRS Inner Tension % improvement: 77% and 76.92%
  MADRS Inner Tension improvement: 10 points
  MADRS Lassitude % improvement: 100%
  MADRS Lassitude improvement: 16 points
  MADRS Pessimistic Thoughts % improvement: 56% and 56.25%
  MADRS Pessimistic Thoughts improvement: 9 points
  MADRS Reduced Sleep % improvement: 17% and 16.67%
  MADRS Reduced Sleep improvement: 2 points
  MADRS Suicidal Thoughts % improvement: 38% and 37.50%
  MADRS Suicidal Thoughts improvement: 3 points
  MADRS Suicidal Thoughts aggregated score: 5
  BPRS Blunted Affect aggregated score: 6
  MADRS Reduced Sleep aggregated score: 10
  BPRS Emotional Withdrawal aggregated score: 8
  MADRS Inner Tension aggregated score: 3
  BPRS Tension aggregated score: 6
  MADRS Concentration Difficulties aggregated score: 2
  MADRS Inability to Feel aggregated score: 1
  MADRS Lassitude aggregated score: 0
  MADRS Pessimistic Thoughts aggregated score: 7
  BPRS Guilt Feelings aggregated score: 5
  BPRS Anxiety aggregated score: 6
Day 7
  BPRS Anxiety % improvement: 76%
  BPRS Anxiety improvement: 19 points
  BPRS Blunted Affect % improvement: 55% and 54.55%
  BPRS Blunted Affect improvement: 6 points
  BPRS Emotional Withdrawal % improvement: 54% and 53.85%
  BPRS Emotional Withdrawal improvement: 7 points
  BPRS Guilt Feelings % improvement: 72% and 72.22%
  BPRS Guilt Feelings improvement: 13 points
  BPRS Tension % improvement: 57% and 57.14%
  BPRS Tension improvement: 8 points
  MADRS Concentration Difficulties % improvement: 81% and 81.25%
  MADRS Concentration Difficulties improvement: 13 points
  MADRS Inability to Feel % improvement: 94% and 93.75%
  MADRS Inability to Feel improvement: 15 points
  MADRS Inner Tension % improvement: 62% and 61.54%
  MADRS Inner Tension improvement: 8 points
  MADRS Lassitude % improvement: 81% and 81.25%
  MADRS Lassitude improvement: 13 points
  MADRS Pessimistic Thoughts % improvement: 50%
  MADRS Pessimistic Thoughts improvement: 8 points
  MADRS Reduced Sleep % improvement: 50%
  MADRS Reduced Sleep improvement: 6 points
  MADRS Suicidal Thoughts % improvement: 13% and 12.50%
  MADRS Suicidal Thoughts improvement: 1 points
  MADRS Suicidal Thoughts aggregated score: 7
  BPRS Blunted Affect aggregated score: 5
  MADRS Reduced Sleep aggregated score: 6
  BPRS Emotional Withdrawal aggregated score: 6
  MADRS Inner Tension aggregated score: 5
  BPRS Tension aggregated score: 6
  MADRS Concentration Difficulties aggregated score: 3
  MADRS Inability to Feel aggregated score: 1
  MADRS Lassitude aggregated score: 3
  MADRS Pessimistic Thoughts aggregated score: 8
  BPRS Guilt Feelings aggregated score: 5
  BPRS Anxiety aggregated score: 6
18 mg group n=4, day seven
  Further patients with MADRS clinical response: 25%
  Patients with MADRS remission (total score ≤10): 25%
18 mg group, day seven
  Mean MADRS change from baseline: −12.8
  Mean MADRS change from baseline, percent: −41%
IDR (Part B) n=8, day seven, p<0.0001
  Patients with MADRS remission (total score ≤10): 87.5%
